According to patent US20130303376A1, “METHODS OF IMPROVING PLANT GROWTH” (Bayer CropScience AG, priority 2007, published 2013):
Where “and” joins values, the source holds several entries; their conditions need not be identical. Equal entries are not always repeated.

Legend:
Format in all cases: in vivo
[1] = test system: Solanum lycopersicum ‘Rentita’; assay: Root growth test of tomatoes under oxygen deficiency conditions in the nutrient solution; conditions: 1.0 mg a.i./plant; floating box, nutrient solution not aerated (oxygen deficiency stress); average maximum root length after 12 d
Protocol: To prepare a suitable solution of the preparation, I part by weight of active substance is mixed with water to give the desired concentration.
(§1) Tomato seeds (Solanum lycopersicum ‘Rentita’) are grown in rock wool. After germination, the rock wool blocks are transferred into a floating box provided with the solution of the preparation and grown on under suitable climatic conditions.
(§2) The nutrient solution of the floating box was not aerated (oxygen deficiency stress).
After the desired period of time, the maximum length of the root per tomato plant is measured, and the average root length per floating box and treatment is calculated.

[2] = test system: Solanum lycopersicum ‘Rentita’; assay: Shoot length test on tomatoes under oxygen deficiency conditions in the nutrient solution; conditions: 1.0 mg a.i./plant; floating box, nutrient solution not aerated (oxygen deficiency stress); average maximum shoot length after 19 d
Protocol: To prepare a suitable solution of the preparation, 1 part by weight of active substance is mixed with water to give the desired concentration.
as §1, §2
After the desired period of time, the maximum shoot length per tomato plant is measured, and the average shoot length per floating box and treatment is calculated.

Botrytis cinerea = assay: Drench application for controlling Botrytis cinerea (grey mould) on tomatoes; set-up: Disease level, replicates 1-9 / Disease level Ø / Disease level and shed leaves: scale not given here; conditions: tomato; for Disease level Ø / Shed leaves Ø / Disease level, replicates 1-9 / Shed leaves, replicates 1-9 / Disease level and shed leaves: 10 d post-inoculation, drench, all actives 5 d before inoculation; for Disease level Ø / Shed leaves Ø / Disease level, replicates 1-9 / Shed leaves, replicates 1-9: I-34/I-7 10 mg a.i./plant, fluopyram 20 mg a.i./plant; for Disease level Ø / Shed leaves Ø: mean of 9; for Disease level, replicates 1-9 / Shed leaves, replicates 1-9: single replicates; for Disease level and shed leaves: sum of the two Ø
Protocol: To control Botrytis cinerea (grey mould) on tomatoes, tomato plants which had been grown in peaty soil were treated with the compounds I-34 or I-7 alone or in combination with the fungicide fluopyram (drench application) 5 or 10 days before being inoculated with Botrvtis cinerea. [table] The inoculation with Botrytis cinerea was carried out at the stated points in time (5 or 10 days after drench application of compound I-34, I-7 and/or fluopyram). Inoculation density: 15 000 spores/ml, approx. 33 ml of spore suspension/plant. The disease level of the plants was evaluated 10 days after the inoculation with Botrytis cinerea.

[3] = test system: Triticum aestivum ‘Dekan’; assay: Root growth test of wheat under oxygen deficiency conditions in the nutrient solution; conditions: 0.5 mg a.i./plant; floating box, nutrient solution not aerated (oxygen deficiency stress); average maximum root length after 14 d
Protocol: To prepare a suitable solution of the preparation, I part by weight of formulated product is mixed with water to give the desired concentration.
(§3) Wheat kernels (Triticum aestivum ‘Dekan’) are sown in compost and grown under suitable climatic conditions in a floating box provided with the solution of the preparation. The nutrient solution of the floating box was not aerated (oxygen deficiency stress).
After the desired period of time, the maximum length of the root per wheat plant is measured, and the average root length per floating box and treatment is calculated.

[4] = test system: Triticum aestivum ‘Dekan’; assay: Leaf biomass test on wheat under oxygen deficiency conditions in the nutrient solution; conditions: 0.5 mg a.i./plant, floating box, nutrient solution not aerated (oxygen deficiency stress)
Description: (§4) To prepare a suitable solution of the preparation, 1 part by weight of formulated product is mixed with water to give the desired concentration.
as §3, with “‘Dekan’) or tomato seeds (Solanum lycopersicum ‘Rentita’)” for “‘Dekan’)”
(§5) After the desired period of time, the leaf biomass per wheat or tomato plant is measured, and the average weight per floating box and treatment is calculated.

[5] = test system: Solanum lycopersicum ‘Rentita’; assay: Leaf biomass test on tomatoes under oxygen deficiency conditions in the nutrient solution; conditions: 1.0 mg a.i./plant, floating box, nutrient solution not aerated (oxygen deficiency stress)
Description: as §4
as §3, with “‘Dekan’) or tomato seeds (Solanum lycopersicum ‘Rentita’)” for “‘Dekan’)”
as §5

| Structure (SMILES) | Root growth of tomatoes: Length in cm after 12 d [1] [cm] | Shoot length of tomatoes: Length in cm after 19 d [2] [cm] | Disease level Ø (Botrytis cinerea) | Shed leaves Ø (Botrytis cinerea) | Disease level, replicates 1-9 (Botrytis cinerea) | Shed leaves, replicates 1-9 (Botrytis cinerea) | Disease level and shed leaves (Botrytis cinerea) | also measured |
| --- | --- | --- | --- | --- | --- | --- | --- | --- |
| O=C1C=C(N(CCF)Cc2ccc(Cl)nc2)CO1 [Compound (I-6), 4-{[(6-chloropyrid-3-yl)methyl](2-fluoroethyl)amino}furan-2(5H)-one] | 11.08 | 7.33 |  |  |  |  |  |  |
| O=C1C=C(N(Cc2ccc(Cl)nc2)CC(F)F)CO1 [Compound (I-7), 4-{[(6-chloropyrid-3-yl)methyl](2,2-difluoroethyl)amino}furan-2(5H)-one] | 8.67 | 7.15 | 3 | 3 | 3 (6×) and 2 and 4 and 5 | 5 (3×) and 6 and 3 (2×) and 4 and 2 and 1 | 68 | Root growth of wheat: Length in cm after 14 d [3]: 22.1 cm; Leaf biomass of wheat: Weight in g after 22 d [4]: 15.7 g; Leaf biomass of tomato: Weight in g after 21 d [5]: 19.4 g |
| CN(Cc1cnc(Cl)c(F)c1)C1=CC(=O)OC1 [Compound (I-8), 4-{[(6-chloro-5-fluoropyrid-3-yl)methyl](methyl)amino}furan-2(5H)-one] | 7.43 | 6.6 |  |  |  |  |  |  |
| O=C1C=C(N(CCF)Cc2cnc(Cl)c(Cl)c2)CO1 [Compound (I-14), 4-{[(5,6-dichloropyrid-3-yl)methyl](2-fluoroethyl)amino}furan-2(5H)-one] | 6.97 |  |  |  |  |  |  |  |
| CN(Cc1ccc(Cl)nc1)C1=CC(=O)CC1 [Compound (I-18), 3-{[(6-chloropyrid-3-yl)methyl](methyl)amino}cyclopent-2-en-1-one] | 7.56 |  |  |  |  |  |  |  |
| CC1OC(=O)C=C1N(C)Cc1ccc(Cl)nc1 (stereo not drawn) [Compound (I-25), 4-{[(6-chloropyrid-3-yl)methyl](methyl)amino}-5-methylfuran-2(5H)-one] | 9.19 | 6.8 |  |  |  |  |  |  |
| O=C1C=C(N(Cc2ccc(Cl)nc2)C2CC2)CO1 [Compound (I-31), 4-{[(6-chloropyrid-3-yl)methyl](cyclopropyl)amino}furan-2(5H)-one] | 11.16 | 6.78 |  |  |  |  |  |  |
| CN(Cc1ccc(Cl)nc1)C1=CC(=O)OC1 [Compound (I-34), 4-{[(6-chloropyrid-3-yl)methyl](methyl)amino}furan-2(5H)-one] | 9.53 | 6.75 | 3 | 3 | 5 and 2 (4×) and 3 (2×) and 4 (2×) | 3 (3×) and 0 and 4 (3×) and 5 and 2 | 61 |  |
| O=C(NCCc1ncc(C(F)(F)F)cc1Cl)c1ccccc1C(F)(F)F [Fluopyram, fluopyram, reference compound] |  |  | 1 | 0 | 5 (3×) and 2 and 1 (3×) and 3 (2×) | 0 | 11 | Appearance of infected leaf tissue (symptoms of the disease) (Botrytis cinerea; 10 d post-inoculation with Botrytis cinerea, FIGS. 4-6, in words): remains dark and wet |
